Data from PubChem BioAssay AID1963852 (Molecular Pharmacology Branch, DTP, NCI, 2024).

System: 282377-053-R-J1-PDC complex spheroid viability
Experiment: Anticancer human tumor 282377-053-R-J1-PDC patient-derived colon adenocarcinoma cell line growth inhibition [POLQ]
Details: for IC50: curve of first compound; for viability, T/C: stronger effect = lower value
Outline: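 Growth inhibition in 3D: complex spheroids (tumor PDC, HUVEC, MSC) treated with POLQ inhibitor combinations; where Cmax unknown, highest tested concentration 10 microM, except SN-38 at 1 microM.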

[1] = second compound 0.0316 µM, first compound 0.0316 µM
[2] = second compound 0.0316 µM, first compound 0.1 µM
[3] = second compound 0.0316 µM, first compound 0.316 µM
[4] = second compound 0.0316 µM, first compound 1 µM
[5] = second compound 0.0316 µM, first compound 3.16 µM
[6] = second compound 0.0316 µM, first compound 10 µM
[7] = second compound 0.1 µM, first compound 0.0316 µM
[8] = second compound 0.1 µM, first compound 0.1 µM
[9] = second compound 0.1 µM, first compound 0.316 µM
[10] = second compound 0.1 µM, first compound 1 µM
[11] = second compound 0.1 µM, first compound 3.16 µM
[12] = second compound 0.1 µM, first compound 10 µM
[13] = second compound 0.316 µM, first compound 0.0316 µM
[14] = second compound 0.316 µM, first compound 0.1 µM
[15] = second compound 0.316 µM, first compound 0.316 µM
[16] = second compound 0.316 µM, first compound 1 µM
[17] = second compound 0.316 µM, first compound 3.16 µM
[18] = second compound 0.316 µM, first compound 10 µM
[19] = second compound 1 µM, first compound 0.0316 µM
[20] = second compound 1 µM, first compound 0.1 µM
[21] = second compound 1 µM, first compound 0.316 µM
[22] = second compound 1 µM, first compound 1 µM
[23] = second compound 1 µM, first compound 3.16 µM
[24] = second compound 1 µM, first compound 10 µM
[25] = second compound 3.16 µM, first compound 0.0316 µM
[26] = second compound 3.16 µM, first compound 0.1 µM
[27] = second compound 3.16 µM, first compound 0.316 µM
[28] = second compound 3.16 µM, first compound 1 µM
[29] = second compound 3.16 µM, first compound 3.16 µM
[30] = second compound 3.16 µM, first compound 10 µM
[31] = second compound 10 µM, first compound 0.0316 µM
[32] = second compound 10 µM, first compound 0.1 µM
[33] = second compound 10 µM, first compound 0.316 µM
[34] = second compound 10 µM, first compound 1 µM
[35] = second compound 10 µM, first compound 3.16 µM
[36] = second compound 10 µM, first compound 10 µM
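Further: spheroids exposed to compounds for seven days.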
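Wherever viability, T/C is given: 100% = DMSO vehicle control viability.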

O=c1[nH]cc(F)c(=O)[nH]1 + Nc1ccc(C#CCN(C(=O)Cc2ncc(C(F)(F)F)cc2C(F)(F)F)c2ccc(F)cc2)nn1
IC50 (second compound 0.0316 µM): > 10 µM | IC50 (second compound 0.1 µM): > 10 µM | IC50 (second compound 0.316 µM): > 10 µM | IC50 (second compound 1 µM): > 10 µM | IC50 (second compound 3.16 µM): > 10 µM | IC50 (second compound 10 µM): > 10 µM | viability, T/C [1]: 115% | viability, T/C [2]: 107% | viability, T/C [3]: 142% | viability, T/C [4]: 117% | viability, T/C [5]: 89.9% | viability, T/C [6]: 95.1% | viability, T/C [7]: 107% | viability, T/C [8]: 126% | viability, T/C [9]: 109% | viability, T/C [10]: 91.6% | viability, T/C [11]: 95.1% | viability, T/C [12]: 94.5% | viability, T/C [13]: 118% | viability, T/C [14]: 98% | viability, T/C [15]: 111% | viability, T/C [16]: 99.1% | viability, T/C [17]: 87.5% | viability, T/C [18]: 90.7% | viability, T/C [19]: 106% | viability, T/C [20]: 103% | viability, T/C [21]: 116% | viability, T/C [22]: 108% | viability, T/C [23]: 112% | viability, T/C [24]: 95.1% | viability, T/C [25]: 119% | viability, T/C [26]: 122% | viability, T/C [27]: 121% | viability, T/C [28]: 118% | viability, T/C [29]: 98.8% | viability, T/C [30]: 85.9% | viability, T/C [31]: 123% | viability, T/C [32]: 128% | viability, T/C [33]: 124% | viability, T/C [34]: 134% | viability, T/C [35]: 90% | viability, T/C [36]: 111%

COc1cc2cc(C(=O)CCC(=O)O)sc2cc1OC + COC1C(OC(N)=O)C(O)C(Oc2ccc3c(O)c(NC(=O)c4ccc(O)c(CC=C(C)C)c4)c(=O)oc3c2C)OC1(C)C
IC50 (second compound 0.0316 µM): > 10 µM | IC50 (second compound 0.1 µM): > 10 µM | IC50 (second compound 0.316 µM): > 10 µM | IC50 (second compound 1 µM): > 10 µM | IC50 (second compound 3.16 µM): > 10 µM | IC50 (second compound 10 µM): > 10 µM | viability, T/C [1]: 118% | viability, T/C [2]: 103% | viability, T/C [3]: 128% | viability, T/C [4]: 104% | viability, T/C [5]: 113% | viability, T/C [6]: 99.3% | viability, T/C [7]: 105% | viability, T/C [8]: 105% | viability, T/C [9]: 116% | viability, T/C [10]: 107% | viability, T/C [11]: 99.1% | viability, T/C [12]: 88.3% | viability, T/C [13]: 121% | viability, T/C [14]: 102% | viability, T/C [15]: 83.1% | viability, T/C [16]: 105% | viability, T/C [17]: 86.9% | viability, T/C [18]: 93.2% | viability, T/C [19]: 109% | viability, T/C [20]: 97.1% | viability, T/C [21]: 109% | viability, T/C [22]: 97.1% | viability, T/C [23]: 114% | viability, T/C [24]: 86.6% | viability, T/C [25]: 111% | viability, T/C [26]: 87.3% | viability, T/C [27]: 119% | viability, T/C [28]: 99.5% | viability, T/C [29]: 86.7% | viability, T/C [30]: 115% | viability, T/C [31]: 99% | viability, T/C [32]: 93.7% | viability, T/C [33]: 117% | viability, T/C [34]: 115% | viability, T/C [35]: 105% | viability, T/C [36]: 123%

CCc1c2c(nc3ccc(O)cc13)-c1cc3c(c(=O)n1C2)COC(=O)[C@]3(O)CC + Cc1cccc(N(C)C(=O)C2C(O)CCN2c2nc(C)cc(C(F)(F)F)c2C#N)c1
IC50 (second compound 0.0316 µM): 0.0503 µM | IC50 (second compound 0.1 µM): 0.18 µM | IC50 (second compound 0.316 µM): 0.0715 µM | IC50 (second compound 1 µM): 0.116 µM | IC50 (second compound 3.16 µM): 0.0702 µM | IC50 (second compound 10 µM): 0.0575 µM | viability, T/C (second compound 0.0316 µM, first compound 0.00316 µM): 122% | viability, T/C (second compound 0.0316 µM, first compound 0.01 µM): 76.2% | viability, T/C [1]: 51.8% | viability, T/C [2]: 49.2% | viability, T/C [3]: 40.1% | viability, T/C [4]: 23.2% | viability, T/C (second compound 0.1 µM, first compound 0.00316 µM): 97.1% | viability, T/C (second compound 0.1 µM, first compound 0.01 µM): 81.6% | viability, T/C [7]: 72% | viability, T/C [8]: 62.4% | viability, T/C [9]: 41.5% | viability, T/C [10]: 21.8% | viability, T/C (second compound 0.316 µM, first compound 0.00316 µM): 102% | viability, T/C (second compound 0.316 µM, first compound 0.01 µM): 74.9% | viability, T/C [13]: 54.4% | viability, T/C [14]: 52% | viability, T/C [15]: 41.4% | viability, T/C [16]: 25.7% | viability, T/C (second compound 1 µM, first compound 0.00316 µM): 110% | viability, T/C (second compound 1 µM, first compound 0.01 µM): 86.8% | viability, T/C [19]: 53.5% | viability, T/C [20]: 51.6% | viability, T/C [21]: 44.8% | viability, T/C [22]: 17.2% | viability, T/C (second compound 3.16 µM, first compound 0.00316 µM): 104% | viability, T/C (second compound 3.16 µM, first compound 0.01 µM): 69.3% | viability, T/C [25]: 63.5% | viability, T/C [26]: 44.4% | viability, T/C [27]: 40.8% | viability, T/C [28]: 22.5% | viability, T/C (second compound 10 µM, first compound 0.00316 µM): 106% | viability, T/C (second compound 10 µM, first compound 0.01 µM): 87.5% | viability, T/C [31]: 49.5% | viability, T/C [32]: 42.5% | viability, T/C [33]: 37.4% | viability, T/C [34]: 16.7%

C#Cc1c(F)ccc2cc(O)cc(-c3ncc4c(N5CC6CCC(C5)N6)nc(OCC56CCCN5CC(F)C6)nc4c3F)c12 (stereo not drawn) + Cc1cccc(N(C)C(=O)C2C(O)CCN2c2nc(C)cc(C(F)(F)F)c2C#N)c1
IC50 (second compound 0.0316 µM): > 10 µM | IC50 (second compound 0.1 µM): > 10 µM | IC50 (second compound 0.316 µM): > 10 µM | IC50 (second compound 1 µM): > 10 µM | IC50 (second compound 3.16 µM): > 10 µM | IC50 (second compound 10 µM): > 10 µM | viability, T/C [1]: 105% | viability, T/C [2]: 84% | viability, T/C [3]: 77.4% | viability, T/C [4]: 89.2% | viability, T/C [5]: 68.6% | viability, T/C [6]: 86.9% | viability, T/C [7]: 84.1% | viability, T/C [8]: 82.4% | viability, T/C [9]: 112% | viability, T/C [10]: 84.8% | viability, T/C [11]: 106% | viability, T/C [12]: 81% | viability, T/C [13]: 91.9% | viability, T/C [14]: 79.2% | viability, T/C [15]: 105% | viability, T/C [16]: 93.6% | viability, T/C [17]: 85.2% | viability, T/C [18]: 66.2% | viability, T/C [19]: 104% | viability, T/C [20]: 80.4% | viability, T/C [21]: 86% | viability, T/C [22]: 81.3% | viability, T/C [23]: 86.9% | viability, T/C [24]: 70.4% | viability, T/C [25]: 91.9% | viability, T/C [26]: 97.6% | viability, T/C [27]: 73.3% | viability, T/C [28]: 75% | viability, T/C [29]: 77.9% | viability, T/C [30]: 74.3% | viability, T/C [31]: 81.7% | viability, T/C [32]: 82.4% | viability, T/C [33]: 82.3% | viability, T/C [34]: 68.5% | viability, T/C [35]: 70.6% | viability, T/C [36]: 81%
